Experimental data reported in patent US20170246166A1, “1,2-BENZOTHIAZOLE COMPOUNDS FOR THE TREATMENT OF KIDNEY DISORDERS” (priority 2014, published 2017).

What was measured:
[1] = target: human PKCβ2 (Homo sapiens, UniProt P05771); experiment: PKC isoforms based HTRF KinEASE-STK assay, PKCβ2; type: biochemical; details: 25 μM ATP in substrate mix, 30 min
Source text: The purpose of this assay is to evaluate the inhibitory activity of compounds on various PKC isoforms. It has been reported that perturbations in vascular cell homeostasis caused by different PKC isoforms (PKC-α, β1/2, and PKC-δ) are linked to the development of pathologies affecting large vessel (atherosclerosis, cardiomyopathy) and small vessel (retinopathy, nephropathy, and neuropathy) complications. Geraldes, P. and King, G. L., “Activation of Protein Kinase C Isoforms and Its Impact on Diabetic Complications”, Cir.
Effects of a test compound on the kinase activity of PKCα, β2, δ, ε, ι, and ζ, are determined using a HTRF KINEASE™-STK assay kit (Cisbio) in accordance with the protocol provided by the vendor. It is a general method for measuring Serine/Threonine kinase activities using kinase substrates and a universal detection system. In the current protocol, biotinilated STK1provided in the assay kit is used as the substrate that can be phosphorylated by any PKC isoform. The HTRF KINEASE™-STK assay kit format involves the two steps (Enzymatic step and Detection step) described below. First, the kinase phosphorylates the substrate in the presence of ATP. Second, the detection reagents provided in the assay kit recognize the phosphorylated substrate.

[2] = system: PKC; experiment: PKC in vivo target inhibition assay (pleckstrin phosphorylation in blood cells); design: species or system mouse; details: male ICR mice, oral gavage, 2 h after treatment
Protocol: The purpose of this assay is to evaluate the effects of in vivo administration of a test compound on PKC substrate phosphorylation in blood cells.
Pleckstrin is one of the PKC protein substrates and is primarily expressed in platelets and peripheral blood mononuclear cells (PBMC). Pleckstrin phosphorylation is proportional to PKC activity. The phosphorylation state of the pleckstrin protein in purified platelets and PBMC from mouse blood is analyzed via Western blotting using a primary antibody specific for phosphorylated PKC substrates. This antibody recognizes multiple phosphorylated PKC substrates that include, but are not limited to p-pleckstrin. The p-pleckstrin band is identified based on its molecular weight.
Male ICR mice (Charles River) are dosed by oral gavage with a test compound homogenized in 1% hydroxethylcellulose/0.25% TWEEN® 80, at a concentration range of 0.3-3 mg/mL, depending on dose; thus dosing volume is 10 ml/kg body weight. Staurosporine, dissolved in the same vehicle, may be used as a positive control to verify that the assay is functioning. […]
10% SDS-PAGE is conducted on the cell lysates (30 μg protein loaded per lane), with 130 V for 90 min. […] Intensity of near-infrared fluorescence is proportional to the level of PKC substrate phosphorylation. It is quantitated with ODYSSEY® software. […]

[3] = system: db/db mice; experiment: Efficacy animal model of diabetic nephropathy (albuminuria, uninephrectomized db/db mice); type: in vivo, mouse; details: oral gavage twice a day
Source text: The purpose of this assay is to analyze compound efficacy in a mouse model of diabetic nephropathy. The earliest clinical manifestation of diabetic nephropathy is albuminuria, leakage of albumin in the urine. Because diabetic nephropathy can be present without any symptoms, early diagnosis is critical so that treatment can be started. The key test for early diagnosis of diabetic nephropathy involves checking for the presence of albuminuria. Thus, if a compound reduces albumin levels in the urine in a diabetic patient, it would likely indicate efficacy of the compound in the treatment of diabetic nephropathy. To model diabetic nephropathy, a combination of genetically driven type 2 diabetes and uninephrectomy is utilized. Six week-old db/db mice (genetic strain: C57 BL KsJ, ChemPartner, Shanghai) receive standard rodent chow and water ad libitum. The left kidney is removed under anesthesia with 0.6% sodium pentobarbital at 60 mg/kg body weight (10 μL/g i.p.). Seven days after surgery, urine is collected for 24 h in a metabolic cage to measure albuminuria levels and blood is collected by tail snip to determine glucose levels. For compound treatment, the animals are randomized based on 24-h albuminuria, blood glucose, and body weight. A test compound is dissolved in 4% DMSO (aqueous) and administered twice a day by oral gavage. […] During the treatment period, albuminuria is analyzed monthly. […]

Sequence of human PKCβ2 (P05771 1-673 isoform P05771-2): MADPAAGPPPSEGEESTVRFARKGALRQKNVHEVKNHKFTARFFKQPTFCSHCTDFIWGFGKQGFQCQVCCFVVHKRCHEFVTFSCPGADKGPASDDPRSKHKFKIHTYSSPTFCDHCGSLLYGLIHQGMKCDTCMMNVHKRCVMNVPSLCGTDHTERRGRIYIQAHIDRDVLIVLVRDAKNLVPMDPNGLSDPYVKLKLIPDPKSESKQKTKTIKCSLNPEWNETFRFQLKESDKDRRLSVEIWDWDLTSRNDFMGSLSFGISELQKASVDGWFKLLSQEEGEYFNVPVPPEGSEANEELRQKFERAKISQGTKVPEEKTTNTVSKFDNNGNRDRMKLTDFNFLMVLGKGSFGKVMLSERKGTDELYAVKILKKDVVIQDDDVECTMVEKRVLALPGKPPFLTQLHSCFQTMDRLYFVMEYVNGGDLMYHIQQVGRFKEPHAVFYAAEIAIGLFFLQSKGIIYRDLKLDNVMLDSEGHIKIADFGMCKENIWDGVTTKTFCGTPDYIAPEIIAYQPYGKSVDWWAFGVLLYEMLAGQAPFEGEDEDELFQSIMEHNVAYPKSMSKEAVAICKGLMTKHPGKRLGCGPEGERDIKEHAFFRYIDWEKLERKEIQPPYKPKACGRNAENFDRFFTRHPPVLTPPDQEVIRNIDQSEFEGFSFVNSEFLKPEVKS

C[C@@H]1CN(C(=O)c2cc(-c3c(F)cc(O)cc3F)cc3cnsc23)C[C@H](C)N1.Cl [Example 2, 4-(7-{[(3R,5 S)-3,5-DIMETHYLPIPERAZIN-1-YL]CARBONYL}-1,2-BENZOTHIAZOL-5-YL)-3,5-DIFLUOROPHENOL HYDROCHLORIDE]
IC50 [1]: ~51 nM
ID50, pleckstrin phosphorylation, PBMCs ([2]; PBMCs): about 18.03 mg/kg
ID50, pleckstrin phosphorylation, platelets ([2]; platelets): about 11.85 mg/kg
ED50 ([3]; Mus musculus, uninephrectomized db/db mice, read-out: ED50, reduction of albuminuria): ~25.3 mg/kg
actual mean levels of albumin in the urine (collected during 24 hours) ([3]; db/db mice, dose of 30 mg/kg): 85.0 ± 6.9 µg
